Measured values published in PubChem BioAssay AID330 (DTP/NCI, 2004).
Values joined by “and” are separate entries in the source; they are usually repeats but may differ in a detail not shown here. Identical values can stand only once. Toxic doses and inconclusive results are not listed. Rule for the calls: active = survival T/C of 150% or more; inactive = T/C below 125% in these data.

Test system: P388 leukemia ip, CD2F1 mice, survival T/C
Experiment: NCI In Vivo Anticancer Drug Screen. Data for tumor model P388 Leukemia (intraperitoneal) in CD2F1 (CDF1) mice
Conditions: endpoint: median survival time, higher = longer survival
Procedure, shortened: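 Mice carrying the transplanted tumor received test compound or vehicle. Survival was recorded in each group, and the value is the treated-group measurement divided by that of the vehicle-treated control group.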

[1] = dose: 50.0 mg/kg/injection, schedule: Q01DX005 (ip), vehicle: Klucel (hydroxypropylcellulose) (HPC)
[2] = dose: 100.0 mg/kg/injection, schedule: Q01DX005 (ip), vehicle: Klucel (hydroxypropylcellulose) (HPC)
[3] = dose: 200.0 mg/kg/injection, schedule: Q01DX005 (ip), vehicle: Klucel (hydroxypropylcellulose) (HPC)
[4] = dose: 60.0 mg/kg/injection, schedule: Q01DX005 (ip), vehicle: saline with Tween-80
[5] = dose: 120.0 mg/kg/injection, schedule: Q01DX005 (ip), vehicle: saline with Tween-80
[6] = dose: 240.0 mg/kg/injection, schedule: Q01DX005 (ip), vehicle: saline with Tween-80
[7] = dose: 100.0 mg/kg/injection, schedule: Q04DX003 (ip), vehicle: saline with Tween-80
[8] = dose: 200.0 mg/kg/injection, schedule: Q04DX003 (ip), vehicle: saline with Tween-80
[9] = dose: 400.0 mg/kg/injection, schedule: Q04DX003 (ip), vehicle: saline with Tween-80
[10] = dose: 12.5 mg/kg/injection, schedule: Q01DX009 (ip), vehicle: saline with Tween-80
[11] = dose: 12.5 mg/kg/injection, schedule: Q01DX009 (ip), vehicle: saline
[12] = dose: 25.0 mg/kg/injection, schedule: Q01DX009 (ip), vehicle: saline with Tween-80
[13] = dose: 50.0 mg/kg/injection, schedule: Q01DX009 (ip), vehicle: saline
[14] = dose: 50.0 mg/kg/injection, schedule: Q01DX009 (ip), vehicle: saline with Tween-80
[15] = dose: 6.25 mg/kg/injection, schedule: Q01DX009 (ip), vehicle: saline
[16] = dose: 25.0 mg/kg/injection, schedule: Q01DX009 (ip), vehicle: saline
[17] = dose: 100.0 mg/kg/injection, schedule: Q01DX009 (ip), vehicle: saline
[18] = dose: 200.0 mg/kg/injection, schedule: Q01DX009 (ip), vehicle: saline
[19] = dose: 50.0 mg/kg/injection, schedule: Q01DX005 (ip), vehicle: saline with Tween-80
[20] = dose: 100.0 mg/kg/injection, schedule: Q01DX005 (ip), vehicle: saline with Tween-80
[21] = dose: 200.0 mg/kg/injection, schedule: Q01DX005 (ip), vehicle: saline with Tween-80
[22] = dose: 100.0 mg/kg/injection, schedule: Q01DX009 (ip), vehicle: saline with Tween-80

Measured: T/C

[B-]([C+]1CCCCC1)N1C=CC=CC1
inactive: [1] 100 % of control | [2] 98 % of control | [3] 97 % of control

CN(C)c1c2ccccc2c(NC=O)c2ccccc12
inactive: dose: 60.0 mg/kg/injection, schedule: Q01DX005 (ip), vehicle: Klucel (hydroxypropylcellulose) (HPC) 102 % of control | dose: 120.0 mg/kg/injection, schedule: Q01DX005 (ip), vehicle: Klucel (hydroxypropylcellulose) (HPC) 95 % of control | dose: 240.0 mg/kg/injection, schedule: Q01DX005 (ip), vehicle: Klucel (hydroxypropylcellulose) (HPC) 86 % of control

Nc1nc(=O)cnn1C1OC(CO)C(O)C1O (centres undefined)
inactive: dose: 100.0 mg/kg/injection, schedule: Q01DX001 (ip), vehicle: saline with Tween-80 98 % of control | dose: 200.0 mg/kg/injection, schedule: Q01DX001 (ip), vehicle: saline with Tween-80 97 % of control | dose: 400.0 mg/kg/injection, schedule: Q01DX001 (ip), vehicle: saline with Tween-80 103 % of control

O=C(CCl)N1CCN(C(c2ccccc2)c2ccccc2)CC1
inactive: [4] 99 % of control | [5] 100 % of control | [6] 99 % of control

CC(=O)C1=C(c2ccccc2)NC(=O)NC1c1ccco1 (centres undefined)
inactive: [7] 95 % of control | [8] 95 % of control | [9] 90 % of control

Nc1ccc(N=O)c(N)n1
inactive: dose: 0.78 mg/kg/injection, schedule: Q01DX009 (ip), vehicle: saline 98 % of control | dose: 1.56 mg/kg/injection, schedule: Q01DX009 (ip), vehicle: saline 86 % of control | dose: 6.25 mg/kg/injection, schedule: Q01DX009 (ip), vehicle: saline with Tween-80 107 % of control | [10] 98 % of control | [11] 98 % of control | [12] 100 % of control | [13] 106 % of control

C=CCn1cnc2c(=S)nc[nH]c21
inactive: [10] 104 % of control | [12] 104 % of control | [14] 109 % of control | [7] 109 % of control | [8] 100 % of control

COC(=O)C(=O)c1c(C(=O)OC)nc2nnc(N)n2c1-c1ccc(OC)cc1
inactive: [4] 100 % of control | [5] 107 % of control | [6] 96 % of control

COC(=O)C(CNc1ccc(S(N)(=O)=O)cc1)=[N+]=[N-]
inactive: [15] 98 % of control | [11] 97 % of control | [16] 91 % of control | [17] 100 % of control | [18] 99 % of control

O=C1OCC2(C(=O)O)C(=O)OCC12 (centres undefined)
inactive: dose: 8.0 mg/kg/injection, schedule: Q01DX009 (ip), vehicle: saline with Tween-80 94 % of control | dose: 16.0 mg/kg/injection, schedule: Q01DX009 (ip), vehicle: saline with Tween-80 105 % of control and 108 % of control | dose: 32.0 mg/kg/injection, schedule: Q01DX009 (ip), vehicle: saline with Tween-80 107 % of control | dose: 64.0 mg/kg/injection, schedule: Q01DX009 (ip), vehicle: saline with Tween-80 100 % of control and 108 % of control | dose: 128.0 mg/kg/injection, schedule: Q01DX009 (ip), vehicle: saline with Tween-80 97 % of control

CCOC(=O)CSc1nnc(-c2cc(OC)c(OC)c(OC)c2)o1
inactive: dose: 100.0 mg/kg/injection, schedule: Q01DX001 (ip), vehicle: Klucel (hydroxypropylcellulose) (HPC) 98 % of control | dose: 200.0 mg/kg/injection, schedule: Q01DX001 (ip), vehicle: Klucel (hydroxypropylcellulose) (HPC) 104 % of control | dose: 400.0 mg/kg/injection, schedule: Q01DX001 (ip), vehicle: Klucel (hydroxypropylcellulose) (HPC) 92 % of control

COc1ccc(CCN2C(=O)C(=O)N(c3ccc([N+](=O)[O-])cc3)C2=O)cc1OC
inactive: [13] 91 % of control | [17] 94 % of control | [18] 94 % of control

O=C(NC(Cc1ccc(F)cc1)C(=O)O)c1ccccc1 (centres undefined)
inactive: dose: 25.0 mg/kg/injection, schedule: Q01DX009 (ip), vehicle: other 113 % of control | dose: 50.0 mg/kg/injection, schedule: Q01DX009 (ip), vehicle: other 115 % of control | dose: 100.0 mg/kg/injection, schedule: Q01DX009 (ip), vehicle: other 110 % of control

CSc1cc(C)[o+]c(C)c1
inactive: dose: 25.0 mg/kg/injection, schedule: Q01DX009 (ip), vehicle: Klucel (hydroxypropylcellulose) (HPC) 101 % of control | dose: 50.0 mg/kg/injection, schedule: Q01DX009 (ip), vehicle: Klucel (hydroxypropylcellulose) (HPC) 113 % of control and 92 % of control | dose: 100.0 mg/kg/injection, schedule: Q01DX009 (ip), vehicle: Klucel (hydroxypropylcellulose) (HPC) 106 % of control and 107 % of control | dose: 200.0 mg/kg/injection, schedule: Q01DX009 (ip), vehicle: Klucel (hydroxypropylcellulose) (HPC) 122 % of control

O=C1c2sccc2C2C1N2C(=O)C(F)(F)F (centres undefined)
inactive: [19] 95 % of control | [20] 98 % of control | [21] 104 % of control

C[C@H](CS)C(=O)N1c2ccccc2C[C@H]1C(=O)O
inactive: [4] 101 % of control | [5] 104 % of control | [6] 113 % of control

CC(=O)NC1CCCCC1[Se](=O)c1ccccc1 (centres undefined)
inactive: [19] 108 % of control | [20] 100 % of control | [21] 109 % of control

c1ccc2c(NCC3CCN(c4c5ccccc5nc5ccccc45)CC3)c3ccccc3nc2c1
inactive: dose: 25.0 mg/kg/injection, schedule: Q04DX002 (ip), vehicle: saline with Tween-80 118 % of control | dose: 50.0 mg/kg/injection, schedule: Q04DX002 (ip), vehicle: saline with Tween-80 117 % of control | dose: 100.0 mg/kg/injection, schedule: Q04DX002 (ip), vehicle: saline with Tween-80 111 % of control

CCOC(=O)[C@@H](F)[C@H](Br)C(=O)OCC
inactive: [14] 100 % of control and 110 % of control | [22] 113 % of control and 122 % of control

C/C=C/C=C\C(=O)O
inactive: [15] 102 % of control | [11] 93 % of control | [16] 93 % of control | dose: 200.0 mg/kg/injection, schedule: Q01DX009 (ip), vehicle: saline with Tween-80 104 % of control

CCN(CC)CCNc1ccc(C)c2sc3ccc(N)cc3c(=O)c12
inactive: [10] 120 % of control | [12] 103 % of control | [14] 124 % of control | [22] 118 % of control

CC1CC(Nc2ccc(NC3=CC(=O)OC(C)C3)cc2)=CC(=O)O1 (centres undefined)
inactive: [19] 94 % of control | [20] 92 % of control | [21] 90 % of control

FC(F)(F)COP(OCC(F)(F)F)c1ccccc1
inactive: [19] 106 % of control | [20] 111 % of control | [21] 111 % of control

COC(=O)/C=C/c1c(=O)c(C(=O)OC)cn2cnc3nc[nH]c3c12
inactive: [7] 97 % of control | [8] 93 % of control | [9] 98 % of control

Cc1nc2ccccc2c(=O)n1/N=C1/C(=O)Nc2ccc(Br)cc21
inactive: dose: 12.5 mg/kg/injection, schedule: Q01DX005 (ip), vehicle: Klucel (hydroxypropylcellulose) (HPC) 96 % of control | dose: 25.0 mg/kg/injection, schedule: Q01DX005 (ip), vehicle: Klucel (hydroxypropylcellulose) (HPC) 96 % of control | [1] 88 % of control and 90 % of control | [2] 91 % of control | [3] 104 % of control
